Reference: patent US20220073554A1, “LINCOSAMIDE ANTIBIOTICS AND USES THEREOF” (President and Fellows of Harvard College, priority 2017, published 2022)
Converted amounts (≈) assume the structure as drawn. Read-outs that look alike come from different tables or passages of the source.

Assays:
Format in all cases: cell-based
S. pneumoniae ATCC 49619 = experiment: MIC against S. pneumoniae ATCC 49619; conditions: Streptococcus pneumoniae, ATCC49619; S. pneumoniae ATCC 49619; read-out: MIC
S. pyogenes ATCC 19615 = experiment: MIC against S. pyogenes ATCC 19615; conditions: Streptococcus pyogenes, ATCC19615; S. pyogenes ATCC 19615; read-out: MIC
E. faecalis ATCC 29212 = experiment: MIC against E. faecalis ATCC 29212; conditions: Enterococcus faecalis
E. coli ATCC 15922 = experiment: MIC against E. coli ATCC 15922; conditions: Escherichia coli, ATCC15922; E. coli ATCC 15922; read-out: MIC
S. aureus ATCC 29213 = experiment: MIC against S. aureus ATCC 29213; conditions: Staphylococcus aureus
E. coli ATCC 25922 = experiment: MIC against E. coli ATCC 25922; conditions: Escherichia coli, ATCC25922
[1] = system: S. aureus MP-549 msr(a) USA 300; experiment: MIC against S. aureus MP-549 msr(a) USA 300; conditions: Staphylococcus aureus, USA300, S. aureus MP-549 msr(a) USA 300
K. pneumoniae ATCC 10031 = experiment: MIC against K. pneumoniae ATCC 10031; conditions: Klebsiella pneumoniae, ATCC10031
E. coli MP-9 ΔTolC = experiment: MIC against E. coli MP-9 ΔTolC; conditions: Escherichia coli
[2] = system: E. coli MP-74 LptD mutant; experiment: MIC against E. coli MP-74 LptD mutant; conditions: Escherichia coli
H. influenzae ATCC 49247 = experiment: MIC against H. influenzae ATCC 49247; conditions: Haemophilus influenzae, ATCC49247
[3] = ATCC29213, S. aureus ATCC 29213, read-out: MIC
[4] = E. coli ATCC 25922, read-out: MIC

Row | MIC (E. coli ATCC 15922) [µg/mL] | Structure (SMILES) | MIC (S. pneumoniae ATCC 49619) [µg/mL] | MIC (S. pyogenes ATCC 19615) [µg/mL] | MIC (E. faecalis ATCC 29212; ATCC29212, read-out: MIC) [µg/mL] | MIC (S. aureus ATCC 29213; [3]) [µg/mL] | MIC (E. coli ATCC 25922; [4]) [µg/mL] | MIC [1] [µg/mL] | MIC (K. pneumoniae ATCC 10031) [µg/mL] | MIC (E. coli MP-9 ΔTolC) [µg/mL] | MIC [2] [µg/mL] | MIC (H. influenzae ATCC 49247) [µg/mL] | MIC (E. coli ATCC 25922) [µg/mL] | MIC (E. faecalis ATCC 29212; ATCC29212) [µg/mL] | MIC (S. aureus ATCC 29213; ATCC29213) [µg/mL] | MIC (K. pneumoniae ATCC 10031; K. pneumoniae ATCC 10031, read-out: MIC) [µg/mL]
1 | > 64 | CSC1O[C@H]([C@H](NC(=O)[C@@H]2[C@@H]3OCC=CC[C@H]3CN2C2CC2)[C@H](C)Sc2ccc(-c3cccnc3)cc2)C(O)[C@@H](O)[C@H]1O (stereo partly shown) [FSA-214009a] | 4 (≈ 6.37 µM) | 4 (≈ 6.37 µM) | > 64 |  |  |  |  |  |  |  |  |  |  | 
2 |  | CCOC(=O)CCN1C[C@@H]2CC=CCO[C@H]2[C@H]1C(=O)N[C@H]([C@H](C)Sc1ccc(-c2cccnc2)cc1)[C@H]1OC(SC)[C@H](O)[C@H](O)C1O (stereo partly shown) [FSA-214009b] |  | 8 (≈ 11.6 µM) | > 64 | ≥ 64 | > 64 |  |  |  |  |  |  |  |  | 
3 |  | CSC1O[C@H]([C@H](NC(=O)[C@H]2NC[C@@H]3CC=CCO[C@@H]32)[C@H](C)Cl)C(O)[C@@H](O)[C@H]1O (stereo partly shown) [FSA-504059] |  |  |  | 2 (≈ 4.58 µM) |  | 2 (≈ 4.58 µM) | > 64 | > 64 | > 64 | > 64 | > 64 |  |  | 
4 |  | CSC1O[C@H]([C@H](NC(=O)[C@H]2NC[C@@H]3CCCCO[C@@H]32)[C@H](C)Cl)C(O)[C@@H](O)[C@H]1O (stereo partly shown) [FSA-504062] |  |  |  | 2 (≈ 4.56 µM) |  | 1 (≈ 2.28 µM) | > 64 | > 64 | > 64 | > 64 | > 64 |  |  | 
5 |  | CSC1O[C@H]([C@H](NC(=O)[C@H]2NC[C@@H]3C=C(C#Cc4ccccc4)CCO[C@@H]23)[C@H](C)Cl)C(O)[C@@H](O)[C@H]1O (stereo partly shown) [FSA-510002] |  |  | 2 (≈ 3.72 µM) | 0.5 (≈ 0.931 µM) |  |  |  | > 64 |  |  | > 64 |  |  | 
6 |  | CSC1O[C@H]([C@H](NC(=O)[C@H]2NC[C@@H]3C=C(C#Cc4cccc(F)c4)CCO[C@@H]23)[C@H](C)Cl)C(O)[C@@H](O)[C@H]1O (stereo partly shown) [FSA-510003] |  |  | 1 (≈ 1.8 µM) | 0.5 (≈ 0.901 µM) |  |  |  | > 64 |  |  | > 64 |  |  | 
7 |  | CSC1O[C@H]([C@H](NC(=O)[C@H]2NC[C@@H]3CC(c4cccc5cnccc45)=CCO[C@H]32)[C@H](C)Cl)C(O)[C@@H](O)[C@H]1O (stereo partly shown) [FSA-510006] | 1 (≈ 1.77 µM) | 0.5 (≈ 0.886 µM) |  | 8 (≈ 14.2 µM) |  |  | > 64 | > 64 |  | > 64 | > 64 |  |  | 
8 |  | CSC1O[C@H]([C@H](NC(=O)[C@H]2NC[C@@H]3CC(NC4CC4)CCO[C@H]32)[C@H](C)Cl)C(O)[C@@H](O)[C@H]1O (stereo partly shown) [FSA-510011] | 8 (≈ 16.2 µM) | 2 (≈ 4.05 µM) |  |  |  |  | > 64 | > 64 | > 64 | > 64 | > 64 | > 64 |  | 
9 |  | CSC1O[C@H]([C@H](NC(=O)[C@H]2NC[C@@H]3CC(NCc4ccccc4F)CCO[C@H]32)[C@H](C)Cl)C(O)[C@@H](O)[C@H]1O (stereo partly shown) [FSA-510072] | 32 (≈ 56.9 µM) | 8 (≈ 14.2 µM) |  |  |  |  | > 64 | > 64 | > 64 | > 64 | > 64 | > 64 |  | 
10 |  | CSC1O[C@H]([C@H](NC(=O)[C@H]2NC[C@@H]3CC(NCc4cccc(F)c4)CCO[C@H]32)[C@H](C)Cl)C(O)[C@@H](O)[C@H]1O (stereo partly shown) [FSA-510073] | 8 (≈ 14.2 µM) | 2 (≈ 3.56 µM) |  |  |  |  | > 64 | > 64 | > 64 | > 64 | > 64 | > 64 |  | 
11 |  | CSC1O[C@H]([C@H](NC(=O)[C@H]2NC[C@@H]3CC(NCc4ccc(F)cc4)CCO[C@H]32)[C@H](C)Cl)C(O)[C@@H](O)[C@H]1O (stereo partly shown) [FSA-510074] |  | 8 (≈ 14.2 µM) |  |  |  |  | > 64 |  | > 64 | > 64 | > 64 | > 64 |  | 
12 |  | CSC1O[C@H]([C@H](NC(=O)[C@H]2NC[C@@H]3CC(c4ccc(C)cc4)=CCO[C@H]32)[C@H](C)Cl)C(O)[C@@H](O)[C@H]1O (stereo partly shown) [FSA-511019] |  | 0.195 (≈ 0.37 µM) | 4 (≈ 7.59 µM) |  | > 64 | 0.5 (≈ 0.949 µM) |  |  |  |  |  |  | 0.5 (≈ 0.949 µM) | > 64
